Experiment [1] concerns rP2X2^gain. The conditions noted are these: rP2X2^gain versus rP2X3^WT.
For experiment [2], the system named is P2X1. The conditions noted are these: cited from earlier work.
The target in experiment [3] is P2X3 receptors. The conditions noted are these: read-out: IC50, the concentration yielding half of the maximal inhibition; cited from earlier work.
In experiment [4] the test system is rP2X3^L191A. The conditions noted are these: cited from earlier work.
The subject of experiment [5] is P2X2. The conditions noted are these: cited from earlier work.
Experiment [6] has as its system P2X5. The conditions noted are these: cited from earlier work.
The test system of experiment [7] is P2X7. Particulars: cited from earlier work.
Experiment [8] deals with P2X4. Particulars: cited from earlier work.
Experiment [9] concerns cP2X3^A196G. Nature of the experiment: Patch-clamp recording of ATP current, cP2X3 A196G in HEK293 cells. The class given is cell-based, chicken. Particulars: AF-219 30 μM.
Experiment [10] concerns cP2X3^WT. Nature of the experiment: Patch-clamp recording of ATP current, cP2X3 WT in HEK293 cells. The conditions noted are these: AF-219 30 μM. It is filed as cell-based, chicken.

Where only a bound is given, the exact number is not on record here.

As to `CCC(C)c1cc(OC)c(Cl)cc1Oc1cnc(N)nc1N` (stereo not shown) [AF-219-2, 5-(2-(sec-butyl)-5-chloro-4-methoxyphenoxy)pyrimidine-2,4-diamine], the “Fold increase of IC50 for rP2X2^gain over rP2X3^WT” value in experiment [1] is on record as 18 fold.
For the compound `COc1cc(C(C)C)c(Oc2cnc(N)nc2N)cc1S(N)(=O)=O` [AF-219], the IC50 is > 10 µM in experiment [2]; 42.6 ± 2.9 nM in [3]; > 10 µM in experiment [5]; > 10 µM in experiment [6]; > 10 µM in [7]; > 10 µM in experiment [8]. Also, in experiment [4], the “Inhibition of rP2X3^L191A” value is given as “almost fully abolished the inhibition”. In addition, the “Effect on the ATP (10 μM)-current of cP2X3^A196G” value in experiment [9] is “significantly inhibited”. Besides, the “Effect on the ATP (10 μM)-current of cP2X3^WT” value in experiment [10] is given as “no inhibitory effect”.

(Values after PMC9014320 (Computational and Structural Biotechnology Journal, 2022).)
